In publication PMC10531346, “Structural Similarities and Overlapping Activities among Dihydroflavonol 4-Reductase, Flavanone 4-Reductase, and Anthocyanidin Reductase Offer Metabolic Flexibility in the Flavonoid Pathway” (International Journal of Molecular Sciences, 2023):
“And” between values parts separate entries of the source, which are not always exact repeats. Equal values may be shown once. Read-outs that look alike come from different tables or passages of the source.

Key:
[1] = molecular target: T1, PvDFRa (Panicum virgatum, UniProt A0A8T0SQV2); assay type: biochemical
Protocol: The referenced Vmax and Km values were used to make a nonlinear regression. […] Five µL of the reaction was injected into a reversed-phase HPLC column XBridge Peptide BEH C18 (Waters, Milford, MA, USA). Acetonitrile:water was used as the mobile phase, using a gradient in the concentration of acetonitrile from 5% (v/v) to 100%.

[2] = molecular target: PvDFRa WT (Panicum virgatum, UniProt A0A8T0SQV2); test: Enzyme kinetic assay, wild-type PvDFRa; assay type: biochemical; details: for substrate inhibition at higher substrate concentrations: KI much greater than Km, could not be quantified
Protocol: (§1) Kinetic Assays of PvDFRa, SbDFR3, mutant PvDFRa, and SbFNRs: DFR was purified to the same purity as used in crystallization. Enzymatic assay followed the methodology previously reported with small changes. A solution of 0.1 M potassium phosphate at pH 7.0 was utilized, and substrate concentration was varied from 5 µM to 800 µM. The reaction was initiated with 0.05 mg enzyme in a total reaction volume of 200 µL. […] The reaction proceeded for 15 min. at 25 °C and was terminated by the addition of 600 µL 95:5 (v/v) n-butanol:HCl. […] The reactions were centrifuged for 15 min. at 14,000× g and the supernatant was used to determine product concentrations with a GENESYS™ 10S UV-Vis Spectrophotometer (Thermo Scientific, Waltham, MA, USA). The absorbances of cyanidin delphinidin and pelargonidin were measured at 550, 550, and 528 nm, respectively. The concentrations were determined based on calibrations with reference compounds (Figure S12). […] Data analysis was conducted utilizing GraphPad Prism 8.0.2 using linear regression to model the appropriate model. Error in each data point is shown utilizing the standard deviation.

[3] = molecular target: SbFNR1 (Sorghum bicolor, UniProt C5YGL7); test: SbFNR1 activity assay (dihydroflavonols, flavanones, anthocyanidins); assay type: biochemical; details: for activity of SbFNR1 against the substrate: in words
[4] = molecular target: T2, SbDFR3 (Sorghum bicolor, UniProt C5XVF8); test: Enzyme kinetic assay, SbDFR3; details: NADPH 2 mM
Protocol: as §1

[5] = tested on: SbANR; test: SbANR activity assay (dihydroflavonols, flavanones, anthocyanidins); assay type: biochemical, Sorghum bicolor; details: in words
[6] = molecular target: T1, PvDFRa; test: Isothermal titration calorimetry, PvDFRa; assay type: binding; details: for ∆H / ∆S: ITC, 298 K
Protocol: In order to obtain thermodynamic parameters for the association, isothermal titration calorimetry (ITC) for PvDFRa was performed (Figure S8, Table 2).
Isothermal Titration Calorimetry: Purified PvDFR was dialyzed to a buffer containing 50 mM Bis-Tris, 50 mM Tricine (pH 6.5), 200 mM NaCl and 2.5% (v/v) glycerol. Substrates were dissolved in the same buffer used for enzyme dialysis. Analysis was conducted utilizing a Microcal ITC 200 (Malvern). […] A total of 22 injections were made, each with a volume of 2 uL. Data analysis was conducted utilizing Origin Software 7 and modeled to the appropriate nonlinear regression.

[7] = tested on: SbFNR2; test: SbFNR2 activity assay (dihydroflavonols, flavanones, anthocyanidins); assay type: biochemical, Sorghum bicolor; details: for activity of SbFNR2 against the substrate: in words; for efficiency relative to the activity of SbANR: anthocyanidin reduction
[8] = molecular target: T2, SbDFR3; test: SbDFR3 activity against anthocyanidins (ANR activity); assay type: biochemical; details: anthocyanidin reduction
Protocol: (§2) To measure any overlapping specificity among FNR, DFR, and ANR for anthocyanidins, their activity against cyanidin, pelargonidin, and delphinidin were assayed.
(§3) LC-MS was used to analyze the various flavonoids using a Waters Xevo TQ-MS mass spectrometer interfaced with a Waters Acquity UPLC. […] The chromatographic conditions used were based on. The mobile phase used was a binary gradient of water with 0.1% (v/v) formic acid (Solvent A) and methanol with 0.1% formic acid (Solvent B). The solvent flow rate was 0.2 mL min^-1. and the initial solvent composition was 20% B/80% A and was constant for the first minute following sample injection. Gradient elution was accomplished by increasing the ratio of solvent B to solvent A from 20:80 to 65:35 over 10 min. using a linear gradient, and then increased to 100:0 over the next 4 min. The composition was maintained at 100% B for 5 min., returned to 80%A/20%B over the next 3 min., and held at that ratio for the next 3 min. […]
(§4) Appropriate daughter ions to be used for multiple reaction monitoring (MRM) of (-)-epicatechin were identified by infusing standard and recording spectra. The optimum cone voltage and collision energy of epicatechin were also determined in these infusion experiments. […]

[9] = molecular target: T1, PvDFRa; test: PvDFRa activity against anthocyanidins (ANR activity); assay type: biochemical; details: anthocyanidin reduction
Protocol: as §2, §3, §4

[10] = tested on: O=C1c2c(O)cc(O)cc2O[C@H](c2cc(O)c(O)c(O)c2)[C@H]1O; test: purified protein, by the assay type; details: other: NADPH 2 mM; pH 7.0
[11] = tested on: O=C1c2c(O)cc(O)cc2O[C@H](c2ccc(O)cc2)[C@H]1O; test: purified protein, by the assay type; details: other: NADPH 2 mM; pH 7.0
[12] = tested on: O=C1c2c(O)cc(O)cc2OC(c2ccc(O)c(O)c2)[C@H]1O; test: purified protein, by the assay type; details: other: NADPH 2 mM; pH 7.0
[13] = molecular target: PvDFRa Q242A (Panicum virgatum, UniProt A0A8T0SQV2, Q242A); test: Enzyme kinetic assay, PvDFRa Q242A mutant; assay type: biochemical
Protocol: (§5) Site-directed mutagenesis was conducted using primers generated with the QuikChange Primer Design (Agilent Santa Clara, CA USA).
as §1

[14] = molecular target: PvDFRa T143S (Panicum virgatum, UniProt A0A8T0SQV2, T143S); test: Enzyme kinetic assay, PvDFRa T143S mutant; assay type: biochemical; details: relative to wild-type PvDFRa
Protocol: as §5, §1

[15] = tested on: O=C1C[C@@H](c2ccc(O)cc2)Oc2cc(O)cc(O)c21; test: purified protein, by the assay type; details: other: NADPH 2 mM; pH 7.0
Protocol: Kinetic Assays of PvDFRa, SbDFR3, mutant PvDFRa, and SbFNRs: DFR was purified to the same purity as used in crystallization. Enzymatic assay followed the methodology previously reported [47] with small changes. A solution of 0.1 M potassium phosphate at pH 7.0 was utilized, and substrate concentration was varied from 5 µM to 800 µM. The reaction was initiated with 0.05 mg enzyme in a total reaction volume of 200 µL. […] The reaction proceeded for 15 min. at 25 °C and was terminated by the addition of 600 µL 95:5 (v/v) n-butanol:HCl. […] The reactions were centrifuged for 15 min. at 14,000× g and the supernatant was used to determine product concentrations with a GENESYS™ 10S UV-Vis Spectrophotometer (Thermo Scientific, Waltham, MA, USA). The absorbances of cyanidin delphinidin and pelargonidin were measured at 550, 550, and 528 nm, respectively. The concentrations were determined based on calibrations with reference compounds (Figure S12). Flavanones were assayed utilizing the same general method, but the heating step was reduced to 3 min due to the lower product stability. Data analysis was conducted utilizing GraphPad Prism 8.0.2 using linear regression to model the appropriate model. Error in each data point is shown utilizing the standard deviation.

Q: Which “substrate of PvDFRa or not” value ([1]; 500 µM quercetin, 2 mM NADPH, 30 min, HPLC) does the source give for `O=c1c(O)c(-c2ccc(O)c(O)c2)oc2cc(O)cc(O)c12` [quercetin] here?
A: The value was “not a substrate”.

Q: What about the “type of inhibition of PvDFRa” value ([1]; DHM as substrate) of the same compound?
A: Its value is “noncompetitive inhibition”.

Q: What about the Vmax ([1]; DHM as substrate, 75 μM quercetin) of the same compound?
A: The Vmax was 4.193 min⁻¹.

Q: And the Vmax ([1]; DHM as substrate, 150 μM quercetin)?
A: Its Vmax is 3.545 min⁻¹.

Q: `O=C1C[C@@H](c2ccc(O)c(O)c2)Oc2cc(O)cc(O)c21` [Eriodictyol, eriodictyol] was tested. Which “substrate inhibition at higher substrate concentrations” value [2] did it give?
A: The value was “substrate inhibition occurred”.

Q: And the “kcat for flavanones, given for PvDFRa” value ([2]; NADPH 2 mM)?
A: Its value is 0.00206 s⁻¹.

Q: And the Km ([2]; NADPH 2 mM, pH 7.0, 25 °C)?
A: The Km was 246 ± 224 µM.

Q: And the kcat ([2]; NADPH 2 mM, pH 7.0, 25 °C)?
A: Its kcat is 0.01414 ± 0.00932 s⁻¹.

Q: What about the kcat ([2]; NADPH 2 mM, pH 7.0, 25 °C, listed as eriodictyol) of the same compound?
A: Its kcat is 0.01414 s⁻¹.

Q: And the “product yield compared to PvDFRa and SbDFR3” value ([3]; flavanones, long incubation)?
A: The value was ~ 3%.

Q: And the Km [4]?
A: Its Km is 40.7 ± 31.9 µM.

Q: And the kcat [4]?
A: Its kcat is 0.00206 ± 0.000183 s⁻¹.

Q: What about the Km ([4]; read-out: Km) of the same compound?
A: Its Km is 25.2 µM.

Q: And the “activity of SbANR against the substrate” value [5]?
A: The value was “did not display any activity”.

Q: And the Kd [6]?
A: Its Kd is 64.9 ± 11.8 µM.

Q: What about the “∆H” value [6] of the same compound?
A: Its value is -6.23 ± 0.28 kcal/mol.

Q: And the “∆S” value [6]?
A: The value was −1.74 Cal mol^−1 K^−1.

Q: And the “activity of SbFNR2 against the substrate” value [7]?
A: The value was “did not display any activity”.

Q: `Oc1ccc(-c2[o+]c3cc(O)cc(O)c3cc2O)cc1` [pelargonidin] was tested. Which “efficiency relative to the activity of SbANR” value ([3]; anthocyanidin reduction) did it give?
A: The value was 2.1%.

Q: And the “activity as % of the activity of SbANR” value [8]?
A: Its value is 2.3%.

Q: What about the “efficiency relative to the activity of SbANR” value [7] of the same compound?
A: The value was 42.7%.

Q: And the “activity as % of the activity of SbANR” value [9]?
A: The value was 13.8%.

Q: For PvDFRa Q242A (Panicum virgatum; Q242A), which Km [10] is on record?
A: The Km was 119.2 ± 87.86 µM.

Q: What about the kcat [10] of the same compound?
A: The kcat was 0.0379 s⁻¹.

Q: And the kcat/Km [10]?
A: Its kcat/Km is 318 M⁻¹ s⁻¹.

Q: What about the Km [11] of the same compound?
A: Its Km is 74.59 ± 62.70 µM.

Q: What about the kcat [11] of the same compound?
A: Its kcat is 0.00783 s⁻¹.

Q: What about the kcat/Km [11] of the same compound?
A: The kcat/Km was 105 M⁻¹ s⁻¹.

Q: What about the Km [12] of the same compound?
A: Its Km is 156.8 ± 121.41 µM.

Q: What about the kcat [12] of the same compound?
A: The kcat was 0.0428 s⁻¹.

Q: What about the kcat/Km [12] of the same compound?
A: Its kcat/Km is 273 M⁻¹ s⁻¹.

Q: `O=C1c2c(O)cc(O)cc2O[C@H](c2ccc(O)cc2)[C@H]1O` [DHK, dihydrokaempferol] was tested. Which “substrate inhibition at higher substrate concentrations” value [2] did it give?
A: The value was “substrate inhibition was observed”.

Q: What about the kcat ([13]; NADPH 2 mM) of the same compound?
A: Its kcat is 0.007835 s⁻¹.

Q: And the “higher catalytic efficiency of Q242A mutant” value ([13]; relative to wild-type PvDFRa)?
A: Its value is 1.7 fold.

Q: And the “activity of SbFNR1 against the substrate” value [3]?
A: Its value is “no significant activity”.

Q: What about the Km [4] of the same compound?
A: The Km was 118 ± 22.6 µM.

Q: What about the kcat [4] of the same compound?
A: Its kcat is 0.0101 s⁻¹ and 0.0101 ± 0.00852 s⁻¹.

Q: What about the “activity of SbANR against the substrate” value [5] of the same compound?
A: The value was “no significant activity”.

Q: What about the Kd [6] of the same compound?
A: The Kd was 26.4 ± 2.26 µM.

Q: And the “∆H” value [6]?
A: Its value is -6.19 ± 5.54 kcal/mol.

Q: What about the “∆S” value [6] of the same compound?
A: The value was 0.854 Cal mol^−1 K^−1.

Q: What about the “activity of SbFNR2 against the substrate” value [7] of the same compound?
A: Its value is “no significant activity”.

Q: And the “increased catalytic efficiency of T143S mutant” value [14]?
A: Its value is 1.09 fold.

Q: With `Oc1ccc([C@H]2Oc3cc(O)cc(O)c3C[C@H]2O)cc1` [epiafzelchin] as the compound, how does the “efficiency relative to the activity of SbANR” value [7] read?
A: The value was 43%.

Q: `Oc1cc(O)c2cc(O)c(-c3cc(O)c(O)c(O)c3)[o+]c2c1` [delphinidin] was tested. Which “activity of SbFNR1 against the substrate” value [3] did it give?
A: Its value is “neither SbFNR1 nor SbFNR2 displayed any activity”.

Q: And the “activity of SbANR against the substrate” value [5]?
A: Its value is “showed activity”.

Q: And the “activity of SbFNR2 against the substrate” value [7]?
A: Its value is “neither SbFNR1 nor SbFNR2 displayed any activity”.

Q: For SbDFR3 (Sorghum bicolor), which Km [10] is on record?
A: Its Km is 118.5 ± 0.2885 µM.

Q: What about the kcat [10] of the same compound?
A: The kcat was 0.0773 s⁻¹.

Q: And the kcat/Km [10]?
A: Its kcat/Km is 653 M⁻¹ s⁻¹.

Q: What about the Km [12] of the same compound?
A: The Km was 166.4 ± 28.8 µM.

Q: And the kcat [12]?
A: The kcat was 0.0633 s⁻¹.

Q: And the kcat/Km [12]?
A: Its kcat/Km is 380 M⁻¹ s⁻¹.

Q: What about the Km [15] of the same compound?
A: The Km was 118.2 ± 14.92 µM.

Q: And the kcat [15]?
A: The kcat was 0.0347 ± 0.00145 s⁻¹.

Q: And the kcat/Km [15]?
A: Its kcat/Km is 294 M⁻¹ s⁻¹.
